Results: PubChem BioAssay AID1259411 (Chemical Carcinogenesis Research Information System (CCRIS), 2018)
The source made the active and inactive calls. How the calls were made is not given here.

Tested on: rodent carcinogenicity bioassays, tumor incidence
Experiment: CCRIS carcinogenicity studies
Method in brief: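 NCI-built, expert-reviewed records of carcinogenicity and related test outcomes (mutagenicity, tumor promotion/inhibition) compiled from published and report sources, historical span 1985-2011, not updated.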

CCCCN(COC(C)=O)N=O
carcinogen call (Species: RAT, Strain/Sex: F344/FEMALE, Route: SUBCUTANEOUS, Dose: 6.6 MG/KG 1/WK FOR 10 WK, Tumor Site: Type of Lesion: INJECTION SITE: MALIGNANT FIBROUS HISTIOCYTOMA): active; positive | carcinogen call (Species: RAT, Strain/Sex: F344/MALE, Route: SUBCUTANEOUS, Dose: 6.6 MG/KG 1/WK FOR 10 WK, Tumor Site: Type of Lesion: INJECTION SITE: MALIGNANT FIBROUS HISTIOCYTOMA, LUNG: ADENOMA OR ADENOCARCINOMA OR SQUAMOUS CELL CARCINOMA): active; positive

O=S1(=O)CCCO1
carcinogen call (Species: MOUSE, Strain/Sex: ICR/FEMALE, Route: SUBCUTANEOUS, Dose: 0.3 MG IN WATER 1/WK FOR 63 WK, Tumor Site: Type of Lesion: INJECTION SITE: ADENOACANTHOMA, SARCOMA): active; positive | carcinogen call (Species: RAT, Strain/Sex: STRAIN-BD, Route: SUBCUTANEOUS, Dose: 15, 30 MG/KG IN ARACHIS OIL 1/WK FOR 1 YR, Tumor Site: Type of Lesion: INJECTION SITE: MYOSARCOMA, FIBROSARCOMA): active; positive | carcinogen call (Species: RAT, Strain/Sex: STRAIN-BD, Route: SUBCUTANEOUS, Dose: 15, 30 MG/KG IN WATER 1/WK FOR 1 YR, Tumor Site: Type of Lesion: INJECTION SITE: SARCOMA): active; positive | carcinogen call (Species: RAT, Strain/Sex: STRAIN-CD/FEMALE, Route: GAVAGE, Dose: 28, 56 MG/KG IN WATER 2/WK FOR 78 WK (LOW DOSE) OR 32 WK (HIGH DOSE), Tumor Site: Type of Lesion: BRAIN (CEREBELLUM, CEREBRUM): MALIGNANT GLIOMA, MAMMARY GLAND: ADENOCARCINOMA): active; positive | carcinogen call (Species: RAT, Strain/Sex: STRAIN-CD/MALE, Route: GAVAGE, Dose: 28, 56 MG/KG IN WATER 2/WK FOR 78 WK (LOW DOSE) OR 32 WK (HIGH DOSE), Tumor Site: Type of Lesion: BRAIN (CEREBELLUM, CEREBRUM): MALIGNANT GLIOMA): active; positive

COP(=O)(OC)OC=C(Cl)Cl
carcinogen call (Species: MOUSE, Strain/Sex: B6C3F1/FEMALE, Route: GAVAGE, Dose: 0, 20, 40 MG/KG IN CORN OIL 5 D/WK FOR 103 WK (STUDY DURATION: 104 WK), Dose: 0, 20, 40 MG/KG IN CORN OIL 5 D/WK FOR 103 WK (STUDY DURATION: 104 WK), Tumor Site: Type of Lesion: FORESTOMACH: CARCINOMA, SQUAMOUS CELL PAPILLOMA): active; positive | carcinogen call (Species: MOUSE, Strain/Sex: B6C3F1/FEMALE, Route: GAVAGE, Dose: 0, 20, 40 MG/KG IN CORN OIL 5 D/WK FOR 103 WK (STUDY DURATION: 105 WK), Dose: 0, 20, 40 MG/KG IN CORN OIL 5 D/WK FOR 103 WK (STUDY DURATION: 105 WK), Tumor Site: Type of Lesion: FORESTOMACH: SQUAMOUS PAPILLOMA, SQUAMOUS CELL PAPILLOMA OR CARCINOMA): active; positive | carcinogen call (Species: MOUSE, Strain/Sex: B6C3F1/FEMALE, Route: ORAL, Dose: 0, 317, 635 PPM IN DIET, TWA, Dose: 0, 317, 635 PPM IN DIET, TWA): inactive; negative | carcinogen call (Species: MOUSE, Strain/Sex: B6C3F1/MALE, Route: GAVAGE, Dose: 0, 10, 20 MG/KG IN CORN OIL 5 D/WK FOR 103 WK (STUDY DURATION: 104 WK), Dose: 0, 10, 20 MG/KG IN CORN OIL 5 D/WK FOR 103 WK (STUDY DURATION: 104 WK), Tumor Site: Type of Lesion: FORESTOMACH: SQUAMOUS CELL PAPILLOMA): active; positive | carcinogen call (Species: MOUSE, Strain/Sex: B6C3F1/MALE, Route: GAVAGE, Dose: 0, 10, 20 MG/KG IN CORN OIL 5 D/WK FOR 103 WK (STUDY DURATION: 105 WK), Dose: 0, 10, 20 MG/KG IN CORN OIL 5 D/WK FOR 103 WK (STUDY DURATION: 105 WK), Tumor Site: Type of Lesion: FORESTOMACH: SQUAMOUS PAPILLOMA): active; positive | carcinogen call (Species: MOUSE, Strain/Sex: B6C3F1/MALE, Route: ORAL, Dose: 0, 317, 635 PPM IN DIET, TWA, Dose: 0, 317, 635 PPM IN DIET, TWA): inactive; negative | carcinogen call (Species: RAT, Strain/Sex: BDIX/BLN/FEMALE, Route: INTRAGASTRIC, Dose: 0, 0.1 MG IN 0.2 ML WATER 2/WK FOR 60 WK (STUDY DURATION: 111 WK)): inactive; negative | carcinogen call (Species: RAT, Strain/Sex: BDIX/BLN/FEMALE, Route: INTRAGASTRIC, Dose: 0, 0.1 MG IN 0.2 ML WATER 3/WK FOR 60 WK (STUDY DURATION: 111 WK)): inactive; negative | carcinogen call (Species: RAT, Strain/Sex: BDIX/BLN/MALE, Route: INTRAGASTRIC, Dose: 0, 0.1 MG IN 0.2 ML WATER 2/WK FOR 60 WK (STUDY DURATION: 111 WK)): inactive; negative | carcinogen call (Species: RAT, Strain/Sex: BDIX/BLN/MALE, Route: INTRAGASTRIC, Dose: 0, 0.1 MG IN 0.2 ML WATER 3/WK FOR 60 WK (STUDY DURATION: 111 WK)): inactive; negative | carcinogen call (Species: RAT, Strain/Sex: F344/FEMALE, Route: GAVAGE, Dose: 0, 4, 8 MG/KG IN CORN OIL 5 D/WK FOR 103 WK (STUDY DURATION: 104 WK), Dose: 0, 4, 8 MG/KG IN CORN OIL 5 D/WK FOR 103 WK (STUDY DURATION: 104 WK), Tumor Site: Type of Lesion: PANCREAS: ACINAR CELL ADENOMA, HEMATOPOIETIC SYSTEM: MONONUCLEAR CELL LEUKEMIA, MAMMARY GLAND: FIBROADENOMA, CARCINOMA, Tumor Site: Type of Lesion: PANCREAS: ACINAR CELL ADENOMA, HEMATOPOIETIC SYSTEM: MONONUCLEAR CELL LEUKEMIA, MAMMARY GLAND: FIBROADENOMA, CARCINOMA): active; positive | carcinogen call (Species: RAT, Strain/Sex: F344/FEMALE, Route: GAVAGE, Dose: 0, 4, 8 MG/KG IN CORN OIL 5 D/WK FOR 103 WK (STUDY DURATION: 105 WK), Dose: 0, 4, 8 MG/KG IN CORN OIL 5 D/WK FOR 103 WK (STUDY DURATION: 105 WK), Tumor Site: Type of Lesion: PANCREAS: ADENOMA, MAMMARY GLAND: FIBROADENOMA): equivocal | carcinogen call (Species: RAT, Strain/Sex: F344/MALE, Route: GAVAGE, Dose: 0, 4, 8 MG/KG IN CORN OIL 5 D/WK FOR 103 WK (STUDY DURATION: 104 WK), Dose: 0, 4, 8 MG/KG IN CORN OIL 5 D/WK FOR 103 WK (STUDY DURATION: 104 WK), Tumor Site: Type of Lesion: PANCREAS: ACINAR CELL ADENOMA, HEMATOPOIETIC SYSTEM: MONONUCLEAR CELL LEUKEMIA): active; positive | carcinogen call (Species: RAT, Strain/Sex: F344/MALE, Route: GAVAGE, Dose: 0, 4, 8 MG/KG IN CORN OIL 5 D/WK FOR 103 WK (STUDY DURATION: 105 WK), Dose: 0, 4, 8 MG/KG IN CORN OIL 5 D/WK FOR 103 WK (STUDY DURATION: 105 WK), Tumor Site: Type of Lesion: PANCREAS: ADENOMA, HEMATOPOIETIC SYSTEM: MONONUCLEAR CELL LEUKEMIA): active; positive | carcinogen call (Species: RAT, Strain/Sex: OSBORNE-MENDEL/FEMALE, Route: ORAL, Dose: 0, 318, 635 PPM IN DIET, TWA, Dose: 0, 318, 635 PPM IN DIET, TWA): inactive; negative | carcinogen call (Species: RAT, Strain/Sex: OSBORNE-MENDEL/MALE, Route: ORAL, Dose: 0, 150, 326 PPM IN DIET, TWA, Dose: 0, 150, 326 PPM IN DIET, TWA): inactive; negative

Cc1cnc2ccc3c(nc(NO)n3C)c2n1
carcinogen call (Species: RAT, Strain/Sex: ACI/SEG/MALE, Route: INTRAPERITONEAL, Dose: 0, 50 UMOL/KG BW 2X/WK FOR 10 WK BEGINNING AT 3 D OF AGE (STUDY DURATION: 68 WK), Tumor Site: Type of Lesion: SOFT TISSUE: TUMOR): active; positive

Cc1cnc(C2=NC(C)(C(C)C)C(=O)N2)c(C(=O)O)c1 (stereo unspecified)
carcinogen call (Species: Mouse, Strain/Sex: CD-1[Crl(ICR)BR]/Female (55/Group), Route: Oral, Dose: 0, 1750, 3500, 7000 ppm of 96.9% imazapic in diet for 18 mo, study duration 18 mo, Dose: 0, 1750, 3500, 7000 ppm of 96.9% imazapic in diet for 18 mo, study duration 18 mo): inactive; negative | carcinogen call (Species: Mouse, Strain/Sex: CD-1[Crl(ICR)BR]/Male (55/Group), Route: Oral, Dose: 0, 1750, 3500, 7000 ppm of 96.9% imazapic in diet for 18 mo, study duration 18 mo, Dose: 0, 1750, 3500, 7000 ppm of 96.9% imazapic in diet for 18 mo, study duration 18 mo): inactive; negative | carcinogen call (Species: Rat, Strain/Sex: Crl:CD(SD)BR/Female (55/Group), Route: Oral, Dose: 0, 5000, 10,000, 20,000 ppm of 96.4% imazapic in diet for 24 mo, study duration 24 mo, Dose: 0, 5000, 10,000, 20,000 ppm of 96.4% imazapic in diet for 24 mo, study duration 24 mo): inactive; negative | carcinogen call (Species: Rat, Strain/Sex: Crl:CD(SD)BR/Male (55/Group), Route: Oral, Dose: 0, 5000, 10,000, 20,000 ppm of 96.4% imazapic in diet for 24 mo, study duration 24 mo, Dose: 0, 5000, 10,000, 20,000 ppm of 96.4% imazapic in diet for 24 mo, study duration 24 mo): inactive; negative

COC(=O)COc1ccc(Cl)cc1
carcinogen call (Species: NEWT, Route: IMMERSION, Dose: 0, 100, 200, 400 PPM 4 D/WK FOR 12 MO (STUDY DURATION: 24 MO), Dose: 0, 100, 200, 400 PPM 4 D/WK FOR 12 MO (STUDY DURATION: 24 MO)): inactive; negative

CCCCCCCCCCCCCC(=O)ON(C(C)=O)c1ccc2c(c1)Cc1cc(I)ccc1-2
carcinogen call (Species: RAT, Strain/Sex: F344/MALE, Route: SUBCUTANEOUS, Dose: 10.6 UMOL IN 0.2 ML DMSO-TRIOCTANOIN 1/WK FOR 6 WK, Tumor Site: Type of Lesion: INJECTION SITE: FIBROSARCOMA OR FIBROMYOSARCOMA OR FIBROLIPOSARCOMA): active; positive

C=Cc1ccccn1
carcinogen call (Species: MOUSE, Strain/Sex: STRAIN-A/FEMALE, Route: INTRAPERITONEAL, Dose: 0, 10 UMOL IN 0.1 ML OLIVE OIL 3/WK FOR 20 DOSES (TOTAL DOSE: 200 UMOL) (STUDY DURATION: 27 WK)): inactive; negative
